Earlier results as cited in patent US20050020536A1, “Highly pure fondaparinux sodium composition, process for preparing said composition and pharmaceutical compositions containing it as active principle” (priority 2003, published 2005).

Tested on: factor Xa
Conditions: general statement in the introduction, no method given

Which “anti-factor Xa (anti Xa) activity” value does the source give for CO[C@H]1O[C@H](COS(=O)(=O)[O-])[C@@H](O[C@@H]2O[C@@H](C(=O)[O-])[C@@H](O[C@H]3O[C@H](COS(=O)(=O)[O-])[C@@H](O[C@@H]4O[C@H](C(=O)[O-])[C@@H](O[C@H]5O[C@H](COS(=O)(=O)[O-])[C@@H](O)[C@H](O)[C@H]5NS(=O)(=O)[O-])[C@H](O)[C@H]4O)[C@H](OS(=O)(=O)[O-])[C@H]3NS(=O)(=O)[O-])[C@H](O)[C@H]2OS(=O)(=O)[O-])[C@H](O)[C@H]1NS(=O)(=O)[O-].[Na+].[Na+].[Na+].[Na+].[Na+].[Na+].[Na+].[Na+].[Na+].[Na+] [Fondaparinux sodium, methyl O-2-deoxy-6-O-sulfo-2-(sulfoamino)-α-D-glucopyranosyl-(1→4)-O-β-D-glucopyranuronosyl-(1→4)-O-2-deoxy-3,6-di-O-sulfo-2-(sulfoamino)-α-D-glucopyranosyl-(1→4)-2-O-sulfo-α-D-glucopyranosyl-(1→4)-O-2-O-sulfo-L-idopyranurosyl-(1→4)-2-deoxy-6-O-sulfo-2-(sulfoamino)-α-D-glucopyranoside, decakissodium salt] here?
The value was “very powerful”.
